Reference: patent US9957253B2, “Triaminopyrimidine compounds useful for preventing or treating malaria” (MMV MEDICINES FOR MALARIA VENTURE, priority 2014, dated 2018)

Tests used:
[1] = Reactive intermediate trapping with GSH or NAC in liver microsomes; type: in vitro ADME, human, rat; settings: 10 μM, 2 mM GSH or NAC
Procedure: (§1) Metabolites of Example 13 were identified both in vitro and in vivo using the following models: • In vitro: The compound of Example 13 was incubated with human (HLM) or rat (RLM) liver microsomes (1 mg/ml protein concentration in 100 mM phosphate buffer, pH 7.4) at a final concentration of 10 μM in the presence of 2 mM NADPH. The reactive intermediates were trapped by including 2 mM glutathione (GSH) or N-acetyl cysteine (NAC) in the reaction mix. • In vivo in bile duct cannulated rats: Example 13 was administered intravenously (IV) as a bolus through the jugular vein at a dose of 2 mg/kg or 4 mg/kg of body weight for control (n=3) or BDC rats (n=2), respectively. Blood samples were collected at 0.083, 0.25, 0.5, 1, 2, 4, 6, 8 and 24 h through the carotid artery, bile samples were collected at 0-2 h, 2-4 h, 4-6 h, 6-8 h and 8-24 h intervals and urine samples were collected at 0-8 h and 8-24 h intervals. The bile and urine samples were analyzed for the presence of parent and metabolites and blood samples were analyzed for the presence of parent.

Pf parasites = assay: Pf/SCID model efficacy; type: in vivo, P. falciparum; settings: oral
Procedure: Blood Cmin (0.04 μM) observed at this dose was considered the minimum parasiticidal concentration (MPC) for the human dose prediction.

[2] = Pharmacokinetic studies (IVPK/POPK) in male Beagle dogs; type: in vivo; settings: Dog
Procedure: All in vivo studies were approved by the institutional animal ethics committee. Pharmacokinetics following IV bolus (IVPK) or oral administration (POPK) of compounds was determined in male Wistar rats or male Beagle dogs. For IVPK in rats, Example 7 and Example 10 were administered as solutions in 20% DMA, 80% phosphate-buffered saline and Example 13 was administered as a solution in 10% v/v NMP, 20% v/v DMA in saline. For POPK, Example 7 and Example 10 were administered as suspensions in 20% DMA, 80% phosphate buffered saline and Example 13 was administered as a suspension in 0.5% HPMC and 0.1% Tween 80 through an oral gavage. Example 13 was administered to dogs as a solution in 10% Ethanol, 30% PEG 400, 60% saline for IVPK and as a suspension in 0.5% HPMC, and 0.1% Tween 80 for POPK. Doses used for rat and dog PK were 0.5 mg/kg for Examples 7 and 10 or 2 mg/kg for Example 13 (IVPK). Doses of 5 mg/kg for Examples 7 and 10 were used during POPK. Doses of 10 mg/kg were used for Example 13 during POPK studies. Blood samples were collected at 8 to 13 time points (0, 0.0833, 0.25, 0.283, 0.333, 0.417, 0.75, 1.25, 3.25, 6.25, 12.25, 24.25 h for dog IVPK; 0, 0.25, 0.5, 1, 1.5, 2, 3, 4, 8, 12, 24, 32, 48 h for dog POPK; 0.083, 0.25, 0.5, 1, 2, 4, 7, 24 h for rat IVPK; 0.25, 1, 3, 6, 12, 24, 36, 48 h for rat POPK) after dosing. Blood (rat) or plasma (dog) samples were analysed by LC-MS/MS. PK parameters were estimated by non-compartmental analysis in Phoenix®.

parasite = assay: In vitro parasite reduction ratio (PRR) assay; type: cell-based; settings: after 48 hours of exposure
Procedure: When tested in an in vitro parasite reduction ratio (PRR) assay (Le Manach, et al., 2013, Malar J., […], 424-430), Example 13 produced a >4-log kill after 48 hours of exposure, an effect similar to chloroquine in the same assay.

[3] = Conversion of Example 13 to the active metabolite in liver microsomes, species comparison; type: in vitro ADME, mouse, rat, human; settings: rank order of species
Procedure: as §1
These studies supported the fact that the compound of Example 2 is an active metabolite of the compound of Example 13 and is formed both in vitro and in vivo.

P. vivax field isolates = assay: Ex vivo drug susceptibility (schizont maturation) of P. vivax field isolates; type: cell-based; settings: Plasmodium vivax; Plasmodium field isolates, ex vivo; read-out: P. vivax IC50
Procedure: Further, compounds of the invention (Examples 2 and 13) were also tested against field isolates of falciparum and vivax malaria, along with three control antimalarials as described in the protocol below.
Ex Vivo Activity of Examples 2 and 13 Against Drug Resistant P. falciparum and P. Vivax Field Isolates
Standard antimalarial drugs chloroquine (CQ), amodiaquine (AQ), piperaquine (PIP), mefloquine (MFQ), and artesunate (AS) and compounds of the invention were prepared as 1 mg/mL stock solutions in H2O or dimethyl sulfoxide (DMSO) according to the manufacturers' instructions. Drug plates were pre-dosed by diluting the compounds in 50% Methanol followed by lyophilisation and stored at 4° C.
Plasmodium isolates were collected from patients attending malaria clinics in Timika (Papua, Indonesia), a region endemic for multi-drug-resistant strains of P. vivax and P. falciparum. Patients with symptomatic malaria presenting to an outpatient facility were recruited into the study if singly infected with P. falciparum or P. vivax, with a parasitaemia of between 2,000 μl-1 and 80,000 μl-1, and the majority (>80%) of parasites at ring stage of development. Venous blood (5 mL) was collected by venipuncture and after removal of host white blood cells by using cellulose (Sigma-Aldrich, Australia) filtration, packed infected red blood cells (iRBCs) were used for the ex vivo drug susceptibility assay.
Drug susceptibility of P. vivax and P. falciparum isolates was measured using a protocol modified from the WHO microtest as described previously (Marfurt et al., 2011, Antimicrob Agents Chemother., 55(9):4461). Two hundred μL of a 2% haematocrit Blood Media Mixture (BMM), consisting of RPMI 1640 medium plus 10% AB+ human serum (P. falciparum) or McCoy's 5 A medium plus 20% AB+ human serum (P. vivax), was added to each well of pre-dosed drug plates containing 11 serial concentrations (2-fold dilutions) of the antimalarials (maximum concentration shown in brackets) CQ (2,992 nM), AQ (158 nM), PIP (1,029 nM), MFQ (338 nM), AS (49 nM), and a compound of the invention (2,146 nM). A candle jar was used to mature the parasites at 37.0° C. for 35-56 hours.
Thick blood films made from each well were stained with 5% Giemsa solution for 30 minutes and examined microscopically. The number of schizonts per 200 asexual stage parasites was determined for each drug concentration and normalised to the control well. The dose-response data were analysed using nonlinear regression analysis (WinNonLn 4.1, Pharsight Corporation) and the IC50 value derived using an inhibitory sigmoid Emax model. […] Drug plate quality was assured by running schizont maturation assays (two independent experiments) with the chloroquine-resistant strain K1 and the chloroquine-sensitive strain FC27.
For microscopy slide reading QC, two randomly selected drugs per isolate were read by a second microscopist. […] If necessary, discrepant results were resolved by a third reading by an expert microscopist.

Cc1nc(Nc2ncc(N3CCN(C)[C@H](C)C3)c(Nc3cc(C)n(C)n3)n2)cc(C2CC2)c1F [Example 13, (R)—N2-(4-cyclopropyl-5-fluoro-6-methylpyridin-2-yl)-N4-(1,5-dimethyl-1H-pyrazol-3-yl)-5-(3,4-dimethylpiperazin-1-yl)pyrimidine-2,4-diamine]
GSH or NAC adduct (reactive metabolite) formation [1]: no GSH or NAC adduct formation
Dose at which maximum kill rate was observed (Pf parasites): 40 mg/kg
Oral ‘F’ ([2]; oral 10 mg/kg): 82%
½ life (PO PK) ([2]; oral 10 mg/kg): 9 h
clearance ([2]; male, Beagle, blood, IV bolus 2 mg/kg, read-out: CL blood): 19 mL/min/kg
Vd ([2]; male, Beagle, blood, IV bolus 2 mg/kg, read-out: Vss blood): 16 L/kg
log kill in parasite reduction ratio (PRR) assay (parasite): > 4 log
Percent conversion to the active metabolite (Example 2) [3]: highest in mouse, followed by rat and then human liver microsomes
IC50 (P. vivax field isolates): 85.6 nM
